Earlier results on one molecule are cited in US20230172904A1, “COMBINATION OF AN ANTIALLERGIC AGENT WITH MUSCARINIC ANTAGONIST AND/OR DOPAMINERGIC AGONIST FOR USE IN PREVENTING/STOPPING OF AXIAL MYOPIA IN HUMAN” (priority 2016, published 2023).

The test system of series [1] is axial myopia. As to conditions: one drop of 1% Atropine collyrium at bedtime, chinese children, placebo controlled.
The test system of series [2] is axial myopia.

In the case of `CN1[C@@H]2CC[C@H]1C[C@@H](OC(=O)C(CO)c1ccccc1)C2` (stereo partly drawn) [Atropine], the “subjects in whom the development of axial myopia was halted (stopping the elongation of the bulb)” value with axial myopia [1] is 90%. In addition, the “effect on myopia at reduced doses” value with axial myopia [2] (dose reduced to 0.1%, 0.05% and 0.01%, children) is “dose dependent effect of atropine that is still acceptable at the lower concentration”. In the series on axial myopia [2] (pediatric population, allergic response of the conjunctiva), the “subjects who developed ocular redness and itching” value is “around 5%”.
